# Results as given in patent US12221406B2, “Compounds as NLRP3 inflammasome inhibitors and compositions and uses thereof” (VIRGINIA COMMONWEALTH UNIVERSITY, priority 2019, dated 2025).
# System: EAE
# Assay: EAE development in MOG-immunized mice
# Assay type: in vivo, C57BL/6 mice
# Conditions: 2 mg/kg i.p., from disease onset, to day 35
# From the text: C57BL/6 mice (n=10) were immunized subcutaneously in the dorsal flanks with MOG35-55 peptide emulsified in CFA on day 0. […] To assess the therapeutic effect in clinically relevant setting, treatment was started on disease onset (reduced tail tone, clinical score=1). Control mice received DMSO.
row,Structure (SMILES),EAE induction (clinical score)
1,"C#CCNS(=O)(=O)c1ccc(CCN(Cc2cc(Cl)ccc2OC)C(=O)C=C)cc1 [HL16, N-(5-chloro-2-methoxybenzyl)-N-(4-(N-(prop-2-yn-1-yl)sulfamoyl)phenethyl)acryl-amide]",substantially blocked induction of EAE

# Same assay, conditions: 10 mg/kg i.p., from disease onset, to day 35
row,Structure (SMILES),EAE induction (clinical score)
1,"C#CCNS(=O)(=O)c1ccc(CCN(Cc2cc(Cl)ccc2OC)C(=O)C=C)cc1 [HL16, N-(5-chloro-2-methoxybenzyl)-N-(4-(N-(prop-2-yn-1-yl)sulfamoyl)phenethyl)acryl-amide]",substantially blocked induction of EAE

# Biological target: T1, AIM2 inflammasome (Mus musculus, UniProt Q91VJ1)
# T1 construct: endogenous in cells; host or cells: J774A.1 murine macrophage cell line (LPS + Poly(dA:dT))
# T1 sequence (Q91VJ1 1-354): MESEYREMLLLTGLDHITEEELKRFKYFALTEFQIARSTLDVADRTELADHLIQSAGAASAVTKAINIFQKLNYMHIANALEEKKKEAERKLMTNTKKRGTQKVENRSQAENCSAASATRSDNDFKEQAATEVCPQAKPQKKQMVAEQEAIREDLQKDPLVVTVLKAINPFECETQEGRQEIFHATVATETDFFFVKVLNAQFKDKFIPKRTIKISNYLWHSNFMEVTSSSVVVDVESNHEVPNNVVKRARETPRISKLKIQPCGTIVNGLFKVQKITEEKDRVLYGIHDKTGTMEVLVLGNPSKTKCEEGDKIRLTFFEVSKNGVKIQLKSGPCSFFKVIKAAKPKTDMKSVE
# Assay: AIM2 inflammasome assay in J774A.1 cells (LPS/Poly(dA:dT), IL-1β ELISA)
# Assay type: cell-based, murine
# Conditions: compound 10 μM
# Procedure: (§1) J774A.1 cells were plated into a 96-well plate. […] Cells were treated with LPS (1 μg/mL) and test compounds for 1 h. Flagellin or poly-deoxyadenylic-deoxythymidylic acid sodium salt (Poly(dA:dT)) was used to induce the formation of the NLRC4 and the AIM2 inflammasomes.
row,Structure (SMILES),effect on IL-1β production by AIM2 inflammasome
1,"C#CCNS(=O)(=O)c1ccc(CCN(Cc2cc(Cl)ccc2OC)C(=O)C=C)cc1 [HL16, N-(5-chloro-2-methoxybenzyl)-N-(4-(N-(prop-2-yn-1-yl)sulfamoyl)phenethyl)acryl-amide]",significantly inhibited

# Biological target: T2, NLRP3 inflammasome (Mus musculus, UniProt Q8R4B8)
# Assay: IL-1β release from mouse peritoneal macrophages upon LPS/ATP challenge (ELISA)
# Assay type: cell-based
# Parameters: endogenous in cells; host or cells: thioglycolate-elicited peritoneal macrophages from C57BL/6 mice
# Conditions: not given
# Procedure: Next, test compounds were added for 30 min. […] Primary peritoneal macrophages were similarly treated as described with J774A.1 cell line followed by ELISA analysis for IL-β production.
# C57BL/6 mice were injected with 1 mL of 3% thioglycolate into the peritoneal cavity. Peritoneal cells were collected 3 days after injection by flushing the peritoneal cavity with cold PBS. The peritoneal cells were plated in complete RPMI1640 media containing 10% FBS, 100 U/mL penicillin, 100 μg/mL streptomycin. Floating cells were removed after 2 h and adherent peritoneal macrophages were used for experiments as described above.
# T2 sequence (Q8R4B8 whole entry): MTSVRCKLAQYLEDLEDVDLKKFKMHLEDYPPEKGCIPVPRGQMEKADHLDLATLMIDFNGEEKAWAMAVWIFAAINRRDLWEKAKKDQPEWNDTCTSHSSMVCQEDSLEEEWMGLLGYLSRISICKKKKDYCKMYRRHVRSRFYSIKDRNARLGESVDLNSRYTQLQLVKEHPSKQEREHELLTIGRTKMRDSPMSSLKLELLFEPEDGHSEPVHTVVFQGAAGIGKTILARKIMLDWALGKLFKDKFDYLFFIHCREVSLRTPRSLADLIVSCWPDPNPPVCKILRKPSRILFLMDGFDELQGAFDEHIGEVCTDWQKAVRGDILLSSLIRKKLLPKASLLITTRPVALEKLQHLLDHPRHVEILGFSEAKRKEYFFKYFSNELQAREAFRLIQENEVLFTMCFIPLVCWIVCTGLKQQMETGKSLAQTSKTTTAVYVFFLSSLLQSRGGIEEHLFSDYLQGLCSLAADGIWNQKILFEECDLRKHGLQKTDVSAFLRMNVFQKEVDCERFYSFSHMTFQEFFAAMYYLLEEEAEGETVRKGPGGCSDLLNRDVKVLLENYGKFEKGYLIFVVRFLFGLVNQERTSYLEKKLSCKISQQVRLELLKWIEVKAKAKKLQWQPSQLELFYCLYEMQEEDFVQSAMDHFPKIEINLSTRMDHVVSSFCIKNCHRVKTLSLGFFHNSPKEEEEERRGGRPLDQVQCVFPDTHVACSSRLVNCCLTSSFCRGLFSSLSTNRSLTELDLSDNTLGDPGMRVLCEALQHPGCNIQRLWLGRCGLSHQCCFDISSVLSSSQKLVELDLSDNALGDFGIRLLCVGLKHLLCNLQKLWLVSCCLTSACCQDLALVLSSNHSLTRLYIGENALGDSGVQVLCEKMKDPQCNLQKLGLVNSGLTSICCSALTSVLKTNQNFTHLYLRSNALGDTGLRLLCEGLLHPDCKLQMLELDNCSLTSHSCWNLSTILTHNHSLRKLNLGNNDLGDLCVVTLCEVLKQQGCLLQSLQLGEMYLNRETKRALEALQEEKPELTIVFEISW
row,Structure (SMILES),inhibitory activity in mouse peritoneal macrophages
1,"C#CCNS(=O)(=O)c1ccc(CCN(Cc2cc(Cl)ccc2OC)C(=O)C=C)cc1 [HL16, N-(5-chloro-2-methoxybenzyl)-N-(4-(N-(prop-2-yn-1-yl)sulfamoyl)phenethyl)acryl-amide]",confirmed

# Biological target: T3, NLRC4 inflammasome (Mus musculus, UniProt Q3UP24)
# T3 construct: endogenous in cells; host or cells: J774A.1 murine macrophage cell line (LPS + transfected flagellin)
# Assay: NLRC4 inflammasome assay in J774A.1 cells (LPS/flagellin, IL-1β ELISA)
# Assay type: cell-based, murine
# Conditions: compound 10 μM
# Procedure: as §1
row,Structure (SMILES),effect on IL-1β production by NLRC4 inflammasome
1,"C#CCNS(=O)(=O)c1ccc(CCN(Cc2cc(Cl)ccc2OC)C(=O)C=C)cc1 [HL16, N-(5-chloro-2-methoxybenzyl)-N-(4-(N-(prop-2-yn-1-yl)sulfamoyl)phenethyl)acryl-amide]",significantly inhibited

# Biological target: T2, NLRP3 inflammasome
# Assay: IL-1β release from J774A.1 cells upon LPS/ATP stimulation (ELISA)
# Conditions: not given
row,IC50 [nM],Structure (SMILES)
1,< 1000,CNS(=O)(=O)c1ccc(CCN(Cc2cc(Cl)ccc2OC)C(=O)Cc2ccccc2)cc1 [SZ-N3I-12]
2,1000 to 10000,C=CCN(CCc1ccc(S(=O)(=O)NC)cc1)Cc1cc(Cl)ccc1OC [SZ-N3I-14]
3,1000 to 10000,CCCCCC(=O)N(CCc1ccc(S(=O)(=O)NC)cc1)Cc1cc(Cl)ccc1OC [SZ-N3I-16]
4,1000 to 10000,CCC(=O)N(CCc1ccc(S(=O)(=O)NC)cc1)Cc1cc(Cl)ccc1OC [SZ-N3I-18]
5,1000 to 10000,CCCN(CCc1ccc(S(=O)(=O)NC)cc1)Cc1cc(Cl)ccc1OC [SZ-N3I-20]
6,< 1000,COc1ccc(CNS(=O)(=O)c2ccc(CCN(Cc3cc(Cl)ccc3OC)C(=O)Cc3ccccc3)cc2)cc1 [SZ-N3I-22]
7,1000 to 10000,CCOc1ccc(Cl)cc1CN(CCc1ccc(S(=O)(=O)NCc2ccc(OC)cc2)cc1)C(=O)Cc1ccccc1 [SZ-N3I-23]
8,< 1000,CCCOc1ccc(Cl)cc1CN(CCc1ccc(S(=O)(=O)NCc2ccc(OC)cc2)cc1)C(=O)Cc1ccccc1 [SZ-N3I-24]
9,1000 to 10000,COc1ccc(CNS(=O)(=O)c2ccc(CCN(Cc3cc(Cl)ccc3OCC3CC3)C(=O)Cc3ccccc3)cc2)cc1 [SZ-N3I-25]
10,< 1000,C=CC(=O)N(CCc1ccc(S(=O)(=O)NCc2ccc(OC)cc2)cc1)Cc1cc(Cl)ccc1OC [SZ-N3I-26]
11,< 1000,C=CCOc1ccc(Cl)cc1CN(CCc1ccc(S(=O)(=O)NCc2ccc(OC)cc2)cc1)C(=O)Cc1ccccc1 [SZ-N3I-27]
12,1000 to 10000,COc1ccc(CNS(=O)(=O)c2ccc(CCN(Cc3cc(Cl)ccc3OCc3ccccc3)C(=O)Cc3ccccc3)cc2)cc1 [SZ-N3I-28]
13,> 30000,CCCCCCCOc1ccc(Cl)cc1CN(CCc1ccc(S(=O)(=O)NCc2ccc(OC)cc2)cc1)C(=O)Cc1ccccc1 [SZ-N3I-29]
14,1000 to 10000,CCCCN(CCCC)S(=O)(=O)c1ccc(CCN(Cc2cc(Cl)ccc2OC)C(=O)Cc2ccccc2)cc1 [SZ-N3I-30]
15,> 30000,CCCCN(CCCC)S(=O)(=O)c1ccc(CCN(Cc2cc(Cl)ccc2OCCC)C(=O)Cc2ccccc2)cc1 [SZ-N3I-31]
16,1000 to 10000,C=CCN(CCc1ccc(S(=O)(=O)NC)cc1)C(=O)c1cc(Cl)ccc1C(=O)c1ccccc1 [SZ-N3I-32]
17,1000 to 10000,CNS(=O)(=O)c1cc(CCNC(=O)c2cc(Cl)ccc2OC)co1 [SZ-N3I-33]
18,< 1000,CCCOc1ccc(Cl)cc1CN(CCc1ccc(C(=O)OC)cc1)C(=O)Cc1ccccc1 [SZ-N3I-35]
19,1000 to 10000,CCCOc1ccc(Cl)cc1CN(CCc1ccc(C(=O)NC)cc1)C(=O)Cc1ccccc1 [SZ-N3I-36]
20,< 1000,C#CCNC(=O)c1ccc(CCN(Cc2cc(Cl)ccc2OCCC)C(=O)Cc2ccccc2)cc1 [SZ-N3I-37]
21,< 1000,CCCCN(CCCC)C(=O)c1ccc(CCN(Cc2cc(Cl)ccc2OCCC)C(=O)Cc2ccccc2)cc1 [SZ-N3I-38]
22,< 1000,CCCOc1ccc(Cl)cc1CN(CCc1ccc(C(=O)NCc2ccc(OC)cc2)cc1)C(=O)Cc1ccccc1 [SZ-N3I-39]
23,1000 to 10000,CCCOc1ccc(Cl)cc1CN(CCc1ccc(C(=O)OC)cc1)C(=O)Cc1ccsc1 [SZ-N3I-60]
24,< 1000,C#CCNC(=O)c1ccc(CCN(Cc2cc(Cl)ccc2OCCC)C(=O)Cc2ccsc2)cc1 [SZ-N3I-61]
25,1000 to 10000,COc1ccc(Cl)cc1C(=O)NCCc1ccc(S(=O)(=O)NCCOCCOCCCCCCCl)cc1 [SZ-N3I-62]
26,< 1000,O=C(NCCc1ccc(S(=O)(=O)NCc2ccccc2)cc1)c1cc(Cl)ccc1C(=O)c1ccccc1 [SZ-N3I-63]

row,IC50 [nM],Structure (SMILES)
1,1000 to 10000,O=C(NCCc1ccc(S(=O)(=O)N2CCCC2)cc1)c1cc(Cl)ccc1C(=O)c1ccccc1 [SZ-N3I-64]
2,1000 to 10000,O=C(NCCc1ccc(S(=O)(=O)NCc2ccccc2)cc1)c1cc(Cl)ccc1C(O)c1ccccc1 (centres unmarked) [SZ-N3I-65]
3,1000 to 10000,O=C(NCCc1ccc(S(=O)(=O)N2CCCC2)cc1)c1cc(Cl)ccc1C(O)c1ccccc1 (centres unmarked) [SZ-N3I-66]
4,1000 to 10000,C#CCNS(=O)(=O)c1ccc(CCN(CCCCC)Cc2cc(Cl)ccc2OCCC)cc1 [SZ-N3I-67]
5,1000 to 10000,C#CCNS(=O)(=O)c1ccc(CCN(Cc2cc(Cl)ccc2OCCC)C(C)C)cc1 [SZ-N3I-68]
6,1000 to 10000,CCCOc1ccc(Cl)cc1CN(CCc1ccc(S(=O)(=O)N2CCNCC2)cc1)C(=O)Cc1ccsc1 [SZ-N3I-69]
7,1000 to 10000,C#CCNS(=O)(=O)c1ccc(CCN(Cc2cc(Cl)ccc2OCCC)C(=O)C(N)C(C)C)cc1 (centres unmarked) [SZ-N3I-70]
8,1000 to 10000,C#CCNS(=O)(=O)c1ccc(CCN(Cc2cc(Cl)ccc2OCCC)C(=O)[C@@H]2CCCN2)cc1 [SZ-N3I-71]
9,1000 to 10000,C#CCNS(=O)(=O)c1ccc(CCN(Cc2cc(Cl)ccc2OCCC)C(=O)[C@H]2CCCN2)cc1 [SZ-N3I-72]
10,1000 to 10000,C#CCNS(=O)(=O)c1ccc(CCN(Cc2cc(Cl)ccc2OCCN2CCOCC2)C(=O)Cc2ccsc2)cc1 [SZ-N3I-73]
11,1000 to 10000,C#CCNS(=O)(=O)c1ccc(CCN(Cc2cc(Cl)ccc2OCCO)C(=O)Cc2ccsc2)cc1 [SZ-N3I-74]
12,1000 to 10000,C#CCNS(=O)(=O)c1ccc(CCN(Cc2cc(Cl)ccc2OCCC)C(=O)[C@H]2NCCS2)cc1 [SZ-N3I-75]
13,1000 to 10000,C#CCNS(=O)(=O)c1ccc(CCN(Cc2cc(Cl)ccc2OCCC)C(=O)[C@H](N)Cc2ccccc2)cc1 [SZ-N3I-77]
14,< 1000,C#CCNS(=O)(=O)c1ccc(CCN(Cc2cc(Cl)ccc2OCCC)C(=O)[C@@H](N)Cc2cccs2)cc1 [SZ-N3I-78]
15,< 1000,C#CCNS(=O)(=O)c1ccc(CCN(Cc2cc(Cl)ccc2OCCC)C(=O)[C@@H](N)Cc2ccsc2)cc1 [SZ-N3I-79]
16,< 1000,CCCOc1ccc(Cl)cc1CN(CCc1ccc(S(=O)(=O)N2CCOCC2)cc1)C(=O)Cc1ccsc1 [SZ-N3I-80]
17,< 1000,C#CCNS(=O)(=O)c1ccc(CCN(Cc2cc(Cl)ccc2O)C(=O)Cc2ccsc2)cc1 [SZ-N3I-81]
18,< 1000,C#CCCC1(CCOc2ccc(Cl)cc2CN(CCc2ccc(S(=O)(=O)NCC#C)cc2)C(=O)Cc2ccsc2)N=N1 [SZ-N3I-82]
19,< 1000,C#CCNS(=O)(=O)c1ccc(CCN(Cc2cc(Cl)ccc2[N+](=O)[O-])C(=O)Cc2ccsc2)cc1 [SZ-N3I-83]
20,1000 to 10000,C#CCNS(=O)(=O)c1ccc(CCN(Cc2cc(Cl)ccc2OCCC)C(=O)[C@H](N)c2ccsc2)cc1 [SZ-N3I-84]
21,< 1000,C#CCNS(=O)(=O)c1ccc(CCN(Cc2cc(Cl)ccc2OCCC)C(=O)[C@@H](N)c2ccsc2)cc1 [SZ-N3I-85]
22,1000 to 10000,C#CCNS(=O)(=O)c1ccc(CCN(Cc2cc(Cl)ccc2N)C(=O)Cc2ccsc2)cc1 [SZ-N3I-86]
23,< 1000,C#CCNS(=O)(=O)c1ccc(CCN(Cc2cc(Cl)ccc2[N+](=O)[O-])C(=O)[C@@H](N)Cc2cccs2)cc1 [SZ-N3I-87]
24,< 1000,C#CCNS(=O)(=O)c1ccc(CCN(Cc2cccc3c2OCO3)C(=O)Cc2ccsc2)cc1 [SZ-N3I-88]
25,< 1000,C#CCNS(=O)(=O)c1ccc(CCN(Cc2cc(Cl)ccc2C(F)(F)F)C(=O)Cc2ccsc2)cc1 [SZ-N3I-89]
